Measurements taken from ChEMBL document CHEMBL3727345, “New compounds” (2012).

Target: fructose-2,6-bisphosphatase 3/4 (Homo sapiens) (UniProt Q16875+Q16877)
Experiment: Inhibition of PFKFB3/PFKFB4 in human Panc1 cells assessed as fructose -2,6-bisphosphate production at 12.5 uM preincubated for 1 hr followed by addition of D-glucose measured after 2 hrs by spectrophotometry
Format: cell-based
Conditions: PANC-1

Chain of fructose-2,6-bisphosphatase 3/4 (Homo sapiens) (Q16875 whole entry, looked up): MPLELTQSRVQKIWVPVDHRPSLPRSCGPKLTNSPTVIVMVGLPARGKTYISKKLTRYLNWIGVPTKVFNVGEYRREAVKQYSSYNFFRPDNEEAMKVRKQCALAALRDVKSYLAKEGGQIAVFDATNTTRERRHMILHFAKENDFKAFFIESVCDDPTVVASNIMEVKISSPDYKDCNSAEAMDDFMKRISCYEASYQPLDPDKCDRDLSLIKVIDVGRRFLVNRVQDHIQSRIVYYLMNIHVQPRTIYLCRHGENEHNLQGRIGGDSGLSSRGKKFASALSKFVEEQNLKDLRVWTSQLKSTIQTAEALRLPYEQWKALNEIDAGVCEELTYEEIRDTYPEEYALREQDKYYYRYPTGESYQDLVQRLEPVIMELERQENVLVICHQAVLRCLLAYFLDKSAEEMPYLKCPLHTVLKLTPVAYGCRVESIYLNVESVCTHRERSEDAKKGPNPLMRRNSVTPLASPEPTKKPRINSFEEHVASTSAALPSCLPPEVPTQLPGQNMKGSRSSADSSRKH
Chain of fructose-2,6-bisphosphatase 3/4 (Homo sapiens) (Q16877 whole entry, looked up): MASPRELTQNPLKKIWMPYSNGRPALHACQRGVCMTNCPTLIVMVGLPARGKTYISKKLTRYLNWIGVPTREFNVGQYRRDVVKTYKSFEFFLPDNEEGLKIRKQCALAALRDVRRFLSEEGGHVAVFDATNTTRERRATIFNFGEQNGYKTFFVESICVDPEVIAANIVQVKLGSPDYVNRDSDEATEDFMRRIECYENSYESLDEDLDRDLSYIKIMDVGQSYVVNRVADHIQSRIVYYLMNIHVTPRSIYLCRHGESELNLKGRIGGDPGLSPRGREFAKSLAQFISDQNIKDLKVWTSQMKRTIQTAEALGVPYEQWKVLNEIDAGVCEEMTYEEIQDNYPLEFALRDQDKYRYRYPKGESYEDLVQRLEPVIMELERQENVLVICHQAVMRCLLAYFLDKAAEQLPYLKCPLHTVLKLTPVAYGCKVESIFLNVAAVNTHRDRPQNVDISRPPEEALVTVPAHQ

SMILES | inhibition
CCOC(=O)c1sc(NS(=O)(=O)c2cc(-c3cc(F)ccc3F)c(Cl)s2)nc1C | > 50%
CCOC(=O)c1sc(NS(=O)(=O)c2sc3ccc(Cl)cc3c2C)nc1C | > 50%
COCCOC(=O)c1cccc(NS(=O)(=O)c2sc3ccc(Cl)cc3c2C)c1 | > 50%
Cc1c(S(=O)(=O)Nc2cccc(C(=O)OCc3ccccc3)c2)sc2ccc(Cl)cc12 | > 50%
Cc1c(S(=O)(=O)Nc2cccc(C(=O)Oc3ccccc3)c2)sc2ccc(Cl)cc12 | > 50%
COC(=O)c1cccc(NS(=O)(=O)c2oc3ccc(C(C)C)cc3c2C)c1 | > 50%
Cc1c(S(=O)(=O)Nc2cccc(C(=O)OCCn3cccc3)c2)sc2ccc(Cl)cc12 | > 50%
CCCCCOC(=O)c1cccc(NS(=O)(=O)c2sc3ccc(Cl)cc3c2C)c1 | > 50%
CCOC(=O)c1cccc(NS(=O)(=O)c2sc3ccc(Cl)cc3c2C)c1 | > 50%
Cc1c(S(=O)(=O)Nc2cccc(C(=O)OCC3CCOC3)c2)sc2ccc(Cl)cc12 (stereo not given) | > 50%
